Data reported in US20240109914A1, “IMIDAZOTHIAZOLE COMPOUNDS AND ANALOGS THEREOF AND METHODS FOR TREATING NEMATODE INFECTIONS IN PLANTS” (The Governing Council of The University of Toronto, priority 2021, published 2024).
Where two headings read alike, the source gives them in different places.

Legend:
C. elegans = C. elegans dose-response (viability, minimum lethal concentration); type: in vivo, Caenorhabditis elegans
Experimental: Forty microliters of an HB101 E. coli bacterial suspension in liquid NGM (nematode growth media—see ref. 42 for the recipe) was added to each well of a 96-well flat-bottom culture plate, after which approximately 25 synchronized L1 worms, in 10 μl of M9 buffer (see ref. 43 for the recipe), were added to each well. The synchronized L1 worms were obtained from an embryo preparation performed the previous day (see ref. 43 for the protocol). For the L1 assays, 0.5 μl of test compound solution (or DMSO alone) was immediately added to the wells using a multichannel pipette; the final DMSO concentration is 1% (v/v). The worms were incubated for 3 days at 20° C. and the number of viable animals was counted.
At least three biological replicates were performed for each dose-response assay. For each biological replicate, two technical replicates were performed and the numbers of viable animals for each technical replicate were combined (i.e. ˜ 50 worms assayed per concentration). The number of viable worms at each concentration was divided by the corresponding DMSO control value to give the “relative viability” for each concentration. The “relative viability” values were then averaged across the biological replicates. Minimum lethal concentration was defined as the lowest concentration at which at least 20% of worms die.

M. incognita J2 larvae = assay: Meloidogyne incognita in vitro larval mobility assay; type: in vivo; details: 45 μM, 4 days; for Replicate 1 z-score / Replicate 2 z-score: z-score vs untreated DMSO wells; for pest or weed control at 45 µM: Meloidogyne incognita, 96 h
Summary of the method: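 Infective J2 juveniles of M. incognita Race 1, about 35 per well, were exposed to compound at 45 μM in deionized water with 0.5% DMSO for 4 days at 25° C without shaking. Immobile worms were counted as % of total, averaged over two replicates. A z-score against DMSO control wells was also computed, with z > 1.645 in both replicates marking a hit.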

M. chitwoodi J2 larvae = assay: Meloidogyne chitwoodi in vitro larval mobility assay; type: in vivo; details: 2 days, average of three replicates; for pest or weed control at 45 µM: Meloidogyne chitwoodi, 48 h, read-out: % Immobile
Experimental: M. chitwoodi race 1 (the strain commonly found in the pacific northwest of the United States) was used for all experiments, and was maintained on tomato plants (Solanum lycopersicum ‘Rutgers’) as previously described^47. The microwell dose-response experiments were carried out similarly to previously described protocols^44,46. […] The chemicals were tested at 45 μM, and the final concentration of DMSO in each well was 0.5% (v/v). The wells were covered with a plastic adhesive strip, and the lids of the plates were sealed with parafilm. The plates were incubated at 25° C. for 2 days. The percent of worms that were immobile (% immobile) was quantified by counting the number of immobile worms after 2 days of incubation, dividing the number of immobile worms by the total number of worms in the well, and then multiplying by 100. […] The average % immobile value was calculated across the three replicates.

M. hapla eggs = assay: Meloidogyne hapla in vitro egg hatch assay; type: in vivo; details: 45 μM; for Number of Hatched Eggs: 8 days at room temperature, about 90 eggs per well, tested once; for Number of Hatched Eggs z-score: 8 days, z-score vs 8 untreated DMSO wells
Summary of the method: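 About 90 eggs per well, freed from carrot-root egg masses with 10% bleach for 4 min, were exposed in deionized water to 0.5 μL compound or DMSO. Hatched eggs were counted after 8 days at room temperature without shaking in humid conditions. Each treatment was tested once, with z-scores calculated from 8 untreated DMSO control wells.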

M. incognita = assay: Meloidogyne incognita infectivity assay (soil, tomato roots); type: in vivo; details: 45 μM in soil, 8 weeks, eggs per mg root relative to DMSO control; for pest or weed control at 45 µM: Meloidogyne incognita, 1344 h, read-out: % effectiveness at inhibiting reproduction of M. incognita
Description: An M. incognita population originally collected from grape (Vitis vinifera) in Parlier, California, was used for all experiments, and they were maintained on tomato plants (Solanum lycopersicum ‘Rutgers’) as previously described^47. Infective J2 juveniles were collected as described in ref. 47.

tomato plants = assay: Root mass of tomato plants in the soil infectivity assay; details: 45 μM in soil, 8 weeks
Experimental: For the infectivity assays, 90 grams of soil (1:1 sand:loam mix) was added to each cell of several 6-cell plastic garden packs. The soil was drenched with 18 mL of deionized water containing dissolved test compound or DMSO alone. 2,500 infective J2 juveniles were then added to the soil in 2 mL of deionized water, for a total water volume of 20 mL. […] The DMSO concentration varied from 0.1% to 0.8% (v/v) depending on the stock concentration of the test compound. The highest DMSO concentration was used as the DMSO control. The J2s were incubated in the soil and chemical for 24 hours, after which two- to three-week old tomato seedlings were transplanted into the soil (one plant per cell). Two replicates were performed for each chemical treatment, and four replicates were done for the DMSO controls. The whole experiment was replicated twice, in two different batches on two different days, for a total of four replicates for each test compound treatment, and eight replicates for the DMSO controls. Inoculated plants were grown for 8 weeks in a greenhouse, as described^47, under long-day conditions (16-h photoperiod) with 26/18° C. day/night temperatures. After 8 weeks, the plants were destructively harvested. The tops were removed and discarded, and roots were gently washed with water to remove adhering soil. Eggs were extracted by placing rinsed roots in 0.6% sodium hypochlorite and agitating at 300 rpm for 3 min. Roots were then rinsed over nested 250—and 25.4-μm sieves, with eggs collected from the latter and suspended in water. Roots were dried in a 65° C. oven for at least 24 hours, after which dry roots were weighed. The number of eggs from each plant root was counted on a dissection microscope using a haemocytometer, and the number of eggs per milligram of root was calculated by dividing the total egg number by the mass of the dried root material. An average was taken across the replicates performed on the same day, and then normalized to the DMSO control average. […] An average percent effectiveness value was then calculated across the two different batches carried out on different days.

HepG2 cells = assay: HepG2 cell proliferation assay; type: cell-based, human
Experimental: HepG2 cells, which are liver-derived, were counted using a haemocytometer, diluted, and seeded in […] to a final density of 5×10^4 cells/mL in 100 uL of RPMI-1640 medium supplemented with 10% heat inactivated fetal bovine serum (Gibco) and 1.2× Antibiotic-Antimycotic (Gibco). Cells were incubated at 37° C. with 5% CO2 for 24 hours. Subsequently, a 2-fold dilution series of test compound was added to cells at a final volume of 200 uL and incubated at 37° C. with 5% CO2 for 72 hours. After 72 hours, Alamar Blue (Invitrogen) was added to the Hep G2 cells at a final concentration of 0.5× and plates were incubated at 37° C. for 4 hours. Fluorescence was measured at Ex560 nm/Em590 nm and corrected for background from the medium. All assays were performed in technical triplicates and in at least two biological replicates. The IC50 value was defined as the concentration that inhibits cell proliferation by 50% of the untreated control cells.

[1] = Zebrafish dose-response experiments; type: in vivo, Danio rerio; details: TLAB (wild-type), zebrafish (Danio rerio), in vivo; bound inferred from the tested concentrations, 3 days exposure
Experimental: (§1) Zebrafish were maintained and handled under the guidance and approval of the Canadian Council on Animal Care and the Hospital for Sick Children Laboratory Animal Services. Dose-response assays were performed using zebrafish (Danio rerio) at 3 days post-fertilization. Three wild-type (TLAB) embryos were analyzed in each well of a 24-well plate containing 1 mL of E3 medium (5 mM NaCl, 0.17 mM KCl, 0.33 mM CaCl2, 0.33 mM MgSO4). Test compounds were added to each well to reach final concentrations of 45 μM, 15 μM, and 5 μM (0.5% v/v DMSO), as well as a DMSO control well. The viability of the fish was assessed after 3 days of test compound exposure using a Zeiss standard dissection microscope.

Zebrafish = Zebrafish dose-response experiments; type: in vivo, Danio rerio; details: for Zebrafish LC100: lowest concentration at which all of the fish are dead, 45, 15, 5 μM tested
Experimental: as §1

[2] = Caenorhabditis elegans, 72 h, L1 worms, 3 days at 20° C., lowest concentration at which at least 20% of worms die, read-out: Minimum Lethal Concentration
[3] = Caenorhabditis elegans, 72 h, L1 worms, 3 days at 20° C., same values in ppm, read-out: Minimum Lethal Concentration (ppm)
[4] = average of the two replicates, read-out: Average % Immobile
[5] = replicate 1, read-out: Replicate 1 % Immobile
[6] = replicate 2, read-out: Replicate 2 % Immobile
[7] = 72 hours, Alamar Blue, cell proliferation

Compound | minimal effective concentration (C. elegans; [2]) [µM] | minimal effective concentration (C. elegans; [3]) [µg/mL] | Replicate 1 z-score (M. incognita J2 larvae; replicate 1) | Replicate 2 z-score (M. incognita J2 larvae; replicate 2) | pest or weed control at 45 µM (M. incognita J2 larvae; [4]) [%] | pest or weed control at 45 µM (M. incognita J2 larvae; [5]) [%] | pest or weed control at 45 µM (M. incognita J2 larvae; [6]) [%] | pest or weed control at 45 µM (M. chitwoodi J2 larvae) [%] | Number of Hatched Eggs (M. hapla eggs) | Number of Hatched Eggs z-score (M. hapla eggs) | pest or weed control at 45 µM (M. incognita) [%] | Normalized root mass (relative to DMSO control) (tomato plants) | Zebrafish LC100 (Zebrafish; 3 days exposure) [µM] | further results
Cc1c(-c2ccc(Cl)cc2)nc2sccn12 [I-22] | 12.5 | 3.1 | [7.55] | [4.26] | 46.5 | 59.6 | 33.3 | > 75 | 1 | [4.30] |  |  |  | 
Cc1c(-c2ccc(Br)cc2)nc2sccn12 [I-33] | 12.5 | 3.7 | [1.78] | [4.16] | 32.1 | 31.4 | 32.8 | 58.1 |  |  | 7.9 | 1.45 |  | 
c1cncc(-c2cn3ccsc3n2)c1 [I-45] | > 100 | > 20.1 | [1.92] | [3.20] | 29.8 | 32.1 | 27.4 | 13.8 |  |  |  |  |  | 
Clc1ccc(-c2cn3ccsc3n2)nc1 [I-46] | 100 | 23.6 | [10.33] | [12.18] | ≥ 75 | 73.2 | 77.1 | 56.4 |  |  | 37.7 | 1.56 | >45 | IC50 (HepG2 cells; Homo sapiens, HepG2, 72 hours, Alamar Blue, cell proliferation): > 100 µM; HepG2 IC50 (ppm) (HepG2 cells; approximate ppm equivalent of 100 μM): > 23 ppm; LC50 at 3 days [1]: > 45 µM; lethality to zebrafish (Zebrafish; concentrations up to 45 μM, the highest concentration tested): non-lethal
Clc1ccc(-c2cn3ccoc3n2)cc1 [I-47, 6-(4-chlorophenyl)imidazo[2,1-b]oxazole] | 50 | 10.9 | [14.96] | [15.52] |  | 95.9 | 95.6 | 62.7 | 1 | [4.30] |  |  |  | 
c1ccc(-c2noc(-c3cccs3)n2)cc1 [tioxazafen, reference compound] |  |  | [14.82] | [21.99] |  |  |  |  | 1 | [4.30] |  | 1.09 | 15 | minimal effective concentration (C. elegans; L1 worms, 3 days at 20° C., lowest concentration at which at least 20% of worms die, read-out: Minimum Lethal Concentration): 3.125 µM; Minimum Lethal Concentration (ppm) (C. elegans; L1 worms, 3 days at 20° C., same values in ppm): 0.7 ppm; times more potent at killing C. elegans than compound I-46 (C. elegans; tioxazafen versus compound I-46, minimum lethal concentration): 32; Average % Immobile (M. incognita J2 larvae; average of the two replicates): 100.00%; Replicate 1 % Immobile (M. incognita J2 larvae; replicate 1): 100.00%; Replicate 2 % Immobile (M. incognita J2 larvae; replicate 2): 100.00%; % Immobile (M. chitwoodi J2 larvae; 45 μM): 42.7%; % effectiveness at inhibiting reproduction of M. incognita (M. incognita): 43.7%; HepG2 IC50 (HepG2 cells; [7]): relatively inactive; IC50 (HepG2 cells; [7]): > 100 µM; LC50 (Zebrafish; bound inferred from the tested concentrations, 3 days exposure): ≤ 15 µM; times more potent at killing fish than compound I-46 (Zebrafish; tioxazafen versus compound I-46, zebrafish): at least 3
